Measured values: BigSolDB 2.1

CN[C@@H]1[C@H](O)[C@H](NC)[C@H]2O[C@@]3(O)C(=O)C[C@@H](C)O[C@H]3O[C@@H]2[C@H]1O.Cl.Cl.O.O.O.O.O
solubility (mole fraction)
Conditions	278.15 K	283.15 K	288.15 K	293.15 K	298.15 K	303.15 K	308.15 K	313.15 K	318.15 K
in ethanol	0.00342	0.00412	0.00443	0.00484	0.00545	0.00629	0.00664	0.00738	0.00807
in isopropanol	0.00031	0.0004	0.00051	0.00066	0.00074	0.00086	0.00101	0.00114	0.00131
in methanol	0.00988	0.0138	0.0185	0.0226	0.032	0.0385	0.0439	0.0531	0.0629
in n-propanol	0.00098	0.00125	0.00157	0.00219	0.0027	0.00336	0.00373	0.00447	0.00531
